Test results reported in patent publication US6737383B1, “Herbicidal oxadiazolidines” (priority 1999, dated 2004).

How the values were obtained:
Green foxtail [1] = assay: Test D green foxtail; assay type: in vivo; details: Preemergence, 0 to 100 scale
Procedure, shortened: (§1)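 Each weed species is planted in its own pot or compartment; preemergence doses go on the sandy loam surface within a day. The formulation is a surfactant-containing, non-phytotoxic solvent blend. Ratings come from visual comparison with untreated controls 14 to 21 days later, where 100 means complete control.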

itchgrass = assay: Test D itchgrass; assay type: in vivo, Rottboellia exaltata; details: Preemergence, 0 to 100 scale
Procedure, shortened: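 Scoring used a 0–100 visual injury scale, with 0 meaning no effect and 100 complete control, assessed 14–21 days after application alongside untreated pots. Preemergence treatments went onto sandy loam surfaces of separately potted seeds within a day of sowing.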

common pursiane = assay: Test D common purslane; assay type: in vivo, Portulaca oleracea; details: Preemergence, 0 to 100 scale
Procedure, shortened: as §1

guineagrass = assay: Test D guineagrass; assay type: in vivo, Panicum maximum; details: Preemergence, 0 to 100 scale
Procedure, shortened: as §1

pitted morningglory = assay: Test D pitted morningglory; assay type: in vivo, Ipomoea lacunosa; details: Preemergence, 0 to 100 scale
Procedure, shortened: as §1

sandbur = assay: Test D sandbur; assay type: in vivo, Cenchrus echinatus; details: Preemergence, 0 to 100 scale
Procedure, shortened: as §1

Spanishneedles = assay: Test D Spanishneedles; assay type: in vivo, Bidens bipinnata; details: Preemergence, 0 to 100 scale
Procedure, shortened: as §1

large crabgrass = assay: Test D large crabgrass; assay type: in vivo, Digitaria sanguinalis; details: Preemergence, 0 to 100 scale
Procedure, shortened: as §1

tall mallow = assay: Test D tall mallow; assay type: in vivo, Malva sylvestris; details: Preemergence, 0 to 100 scale
Procedure, shortened: as §1

common ragweed = assay: Test D common ragweed; assay type: in vivo, Ambrosia elatior; details: Preemergence, 0 to 100 scale
Procedure, shortened: as §1

Green foxtail [2] = assay: Test D green foxtail; assay type: in vivo
Procedure, shortened: as §1

goosegrass = assay: Test D goosegrass; assay type: in vivo, Eleusine indica; details: Preemergence, 0 to 100 scale
Procedure, shortened: as §1

surinam grass = assay: Test D surinam grass; assay type: in vivo, Brachiaria decumbens; details: Preemergence, 0 to 100 scale
Procedure, shortened: as §1

dallisgrass = assay: Test D dallisgrass; assay type: in vivo, Paspalum dilatatum; details: Preemergence, 0 to 100 scale
Procedure, shortened: as §1

bermuda-grass = assay: Test D bermudagrass; assay type: in vivo, Cynodon dactylon; details: Preemergence, 0 to 100 scale
Procedure, shortened: as §1

spring wheat = assay: Test E spring wheat; assay type: in vivo, Triticum aestivum; details: Preemergence; for Spring Wheat plant response rating (0 to 100 scale): Rate 250 g/ha
common groundsel = assay: Test D common groundsel; assay type: in vivo, Senecio vulgaris; details: Preemergence, 0 to 100 scale
Procedure, shortened: as §1

[3] = Rate 16 g/ha, 0 no injury, 100 complete control
[4] = Rate 32 g/ha, 0 no injury, 100 complete control
[5] = Rate 64 g/ha, 0 no injury, 100 complete control
[6] = Rate 125 g/ha, 0 no injury, 100 complete control
[7] = Rate 64 g/ha, Preemergence; 0 to 100 scale, 0 no injury, 100 complete control
[8] = Rate 125 g/ha, Preemergence; 0 to 100 scale, 0 no injury, 100 complete control
[9] = Rate 250 g/ha; Preemergence; 0 to 100 scale
[10] = Rate 500 g/ha, Preemergence; 0 to 100 scale
[11] = Rate 125 g/ha, 0 to 100 scale (0 no effect, 100 complete control)

CC(C)N(C(=O)n1oc(=O)n(C2CC2)c1=O)c1ccc(F)cc1 [Compound 242]
Plant response rating, Green foxtail (Green foxtail [1]; Rate 250 g/ha): 100
Plant response rating, Green foxtail (Green foxtail [1]; Rate 500 g/ha): 100
Plant response rating, Itchgrass (itchgrass; [3]): 65
Plant response rating, Itchgrass (itchgrass; [4]): 65
Plant response rating, Itchgrass (itchgrass; [5]): 70
Plant response rating, Itchgrass (itchgrass; [6]): 80
Plant response rating, Itchgrass (itchgrass; Rate 250 g/ha): 98
Plant response rating, Itchgrass (itchgrass; Rate 500 g/ha): 100
Plant response rating, C. purslane (common pursiane; [3]): 0
Plant response rating, C. purslane (common pursiane; [4]): 0
Plant response rating, C. purslane (common pursiane; [5]): 0
Plant response rating, C. purslane (common pursiane; [6]): 0
Plant response rating, C. purslane (common pursiane; Rate 250 g/ha): 0
Plant response rating, C. purslane (common pursiane; Rate 500 g/ha): 0
Plant response rating, Guineagrass (guineagrass; [3]): 70
Plant response rating, Guineagrass (guineagrass; [4]): 85
Plant response rating, Guineagrass (guineagrass; [5]): 98
Plant response rating, Guineagrass (guineagrass; [6]): 100
Plant response rating, Guineagrass (guineagrass; Rate 250 g/ha): 100
Plant response rating, Guineagrass (guineagrass; Rate 500 g/ha): 100
Plant response rating, P. morninglory (pitted morningglory; [3]): 0
Plant response rating, P. morninglory (pitted morningglory; [4]): 0
Plant response rating, P. morninglory (pitted morningglory; [5]): 10
Plant response rating, P. morninglory (pitted morningglory; [6]): 20
Plant response rating, P. morninglory (pitted morningglory; Rate 250 g/ha): 20
Plant response rating, P. morninglory (pitted morningglory; Rate 500 g/ha): 100
Plant response rating, Sandbur (sandbur; [3]): 0
Plant response rating, Sandbur (sandbur; [4]): 0
Sandbur plant response rating (sandbur; [5]): 0
Sandbur plant response rating (sandbur; [6]): 90
Plant response rating, Sandbur (sandbur; Rate 250 g/ha): 100
Plant response rating, Sandbur (sandbur; Rate 500 g/ha): 100
Plant response rating, Spanishneedles (Spanishneedles; [3]): 0
Plant response rating, Spanishneedles (Spanishneedles; [4]): 0
Spanishneedles plant response rating (Spanishneedles; [5]): 0
Spanishneedles plant response rating (Spanishneedles; [6]): 10
Plant response rating, Spanishneedles (Spanishneedles; Rate 250 g/ha): 10
Plant response rating, Spanishneedles (Spanishneedles; Rate 500 g/ha): 40
Plant response rating, Large crabgrass (large crabgrass; [3]): 90
Plant response rating, Large crabgrass (large crabgrass; [4]): 100
Plant response rating, Large crabgrass (large crabgrass; [5]): 100
Plant response rating, Large crabgrass (large crabgrass; [6]): 100
Plant response rating, Large crabgrass (large crabgrass; Rate 250 g/ha): 100
Plant response rating, Large crabgrass (large crabgrass; Rate 500 g/ha): 100
Plant response rating, Tall Mallow (tall mallow; [3]): 0
Plant response rating, Tall Mallow (tall mallow; [4]): 0
Tall Mallow plant response rating (tall mallow; [5]): 0
Tall Mallow plant response rating (tall mallow; [6]): 0
Plant response rating, Tall Mallow (tall mallow; Rate 250 g/ha): 60
Plant response rating, Tall Mallow (tall mallow; Rate 500 g/ha): 85
Plant response rating, C. ragweed (common ragweed; [3]): 100
Plant response rating, C. ragweed (common ragweed; [4]): 100
Plant response rating, C. ragweed (common ragweed; [5]): 100
Plant response rating, C. ragweed (common ragweed; [6]): 100
Plant response rating, C. ragweed (common ragweed; Rate 250 g/ha): 100
Plant response rating, C. ragweed (common ragweed; Rate 500 g/ha): 100
Plant response rating, Green foxtail (Green foxtail [2]; Preemergence; Rate 16 g/ha; 0 to 100 scale, 0 no injury, 100 complete control): 80
Plant response rating, Green foxtail (Green foxtail [2]; Preemergence; Rate 32 g/ha; 0 to 100 scale, 0 no injury, 100 complete control): 100
Plant response rating, Green foxtail (Green foxtail [2]; Rate 16 g/ha; Preemergence; 0 to 100 scale, 0 no injury, 100 complete control): 80
Green foxtail plant response rating (Green foxtail [2]; [7]): 100
Plant response rating, Green foxtail (Green foxtail [2]; [7]): 100
Green foxtail plant response rating (Green foxtail [2]; [8]): 100
Plant response rating, Green foxtail (Green foxtail [2]; [8]): 100
Plant response rating, Green foxtail (Green foxtail [2]; [9]): 100
Plant response rating, Green foxtail (Green foxtail [2]; [10]): 100
Plant response rating, Goosegrass (goosegrass; [3]): 75
Plant response rating, Goosegrass (goosegrass; [4]): 85
Plant response rating, Goosegrass (goosegrass; [5]): 95
Plant response rating, Goosegrass (goosegrass; [6]): 100
Plant response rating, Goosegrass (goosegrass; Rate 250 g/ha): 100
Plant response rating, Goosegrass (goosegrass; Rate 500 g/ha): 100
Plant response rating, Surinam grass (surinam grass; [3]): 20
Plant response rating, Surinam grass (surinam grass; [4]): 85
Surinam grass plant response rating (surinam grass; [5]): 85
Surinam grass plant response rating (surinam grass; [6]): 90
Plant response rating, Surinam grass (surinam grass; Rate 250 g/ha): 100
Plant response rating, Surinam grass (surinam grass; Rate 500 g/ha): 100
Plant response rating, Dallisgrass (dallisgrass; [3]): 65
Plant response rating, Dallisgrass (dallisgrass; [4]): 85
Plant response rating, Dallisgrass (dallisgrass; [5]): 98
Plant response rating, Dallisgrass (dallisgrass; [6]): 98
Plant response rating, Dallisgrass (dallisgrass; Rate 250 g/ha): 100
Plant response rating, Dallisgrass (dallisgrass; Rate 500 g/ha): 100
Plant response rating, Bermudagrass (bermuda-grass; [3]): 80
Plant response rating, Bermudagrass (bermuda-grass; [4]): 85
Plant response rating, Bermudagrass (bermuda-grass; [5]): 85
Plant response rating, Bermudagrass (bermuda-grass; [6]): 98
Plant response rating, Bermudagrass (bermuda-grass; Rate 250 g/ha): 100
Plant response rating, Bermudagrass (bermuda-grass; Rate 500 g/ha): 100
Plant response rating, Spring Wheat (spring wheat; [11]): 55
Spring Wheat plant response rating (0 to 100 scale) (spring wheat): 60
Plant response rating, Spring Wheat (spring wheat; Rate 500 g/ha, 0 to 100 scale where 0 is no effect and 100 is complete control): 100

CC(C)N(C(=O)n1oc(=O)n(C)c1=O)c1ccc(F)cc1 [Compound 138]
Plant response rating, Green foxtail (Green foxtail [1]; Rate 250 g/ha): 100
Plant response rating, Green foxtail (Green foxtail [1]; Rate 500 g/ha): 100
Plant response rating, Com. groundsel (common groundsel; [5]): 40
Plant response rating, Com. groundsel (common groundsel; [6]): 100
Plant response rating, Com. groundsel (common groundsel; Rate 250 g/ha): 100
Plant response rating, Com. groundsel (common groundsel; Rate 500 g/ha): 100
Plant response rating, Itchgrass (itchgrass; [5]): 30
Plant response rating, Itchgrass (itchgrass; [6]): 80
Plant response rating, Itchgrass (itchgrass; Rate 250 g/ha): 100
Plant response rating, Itchgrass (itchgrass; Rate 500 g/ha): 100
Plant response rating, C. purslane (common pursiane; [5]): 0
Plant response rating, C. purslane (common pursiane; [6]): 30
Plant response rating, C. purslane (common pursiane; Rate 250 g/ha): 100
Plant response rating, C. purslane (common pursiane; Rate 500 g/ha): 100
Plant response rating, Guineagrass (guineagrass; [5]): 100
Plant response rating, Guineagrass (guineagrass; [6]): 100
Plant response rating, Guineagrass (guineagrass; Rate 250 g/ha): 100
Plant response rating, Guineagrass (guineagrass; Rate 500 g/ha): 100
Plant response rating, P. morninglory (pitted morningglory; [5]): 65
Plant response rating, P. morninglory (pitted morningglory; [6]): 65
Plant response rating, P. morninglory (pitted morningglory; Rate 250 g/ha): 65
Plant response rating, P. morninglory (pitted morningglory; Rate 500 g/ha): 65
Sandbur plant response rating (sandbur; [5]): 65
Sandbur plant response rating (sandbur; [6]): 65
Plant response rating, Sandbur (sandbur; Rate 250 g/ha): 98
Plant response rating, Sandbur (sandbur; Rate 500 g/ha): 100
Spanishneedles plant response rating (Spanishneedles; [5]): 10
Spanishneedles plant response rating (Spanishneedles; [6]): 10
Plant response rating, Spanishneedles (Spanishneedles; Rate 250 g/ha): 30
Plant response rating, Spanishneedles (Spanishneedles; Rate 500 g/ha): 75
Plant response rating, Large crabgrass (large crabgrass; [5]): 100
Plant response rating, Large crabgrass (large crabgrass; [6]): 100
Plant response rating, Large crabgrass (large crabgrass; Rate 250 g/ha): 100
Plant response rating, Large crabgrass (large crabgrass; Rate 500 g/ha): 100
Tall Mallow plant response rating (tall mallow; [5]): 40
Tall Mallow plant response rating (tall mallow; [6]): 40
Plant response rating, Tall Mallow (tall mallow; Rate 250 g/ha): 70
Plant response rating, Tall Mallow (tall mallow; Rate 500 g/ha): 100
Plant response rating, C. ragweed (common ragweed; [5]): 10
Plant response rating, C. ragweed (common ragweed; [6]): 30
Plant response rating, C. ragweed (common ragweed; Rate 250 g/ha): 60
Plant response rating, C. ragweed (common ragweed; Rate 500 g/ha): 100
Green foxtail plant response rating (Green foxtail [2]; [7]): 100
Plant response rating, Green foxtail (Green foxtail [2]; [7]): 100
Green foxtail plant response rating (Green foxtail [2]; [8]): 100
Plant response rating, Green foxtail (Green foxtail [2]; [8]): 100
Plant response rating, Green foxtail (Green foxtail [2]; [9]): 100
Plant response rating, Green foxtail (Green foxtail [2]; [10]): 100
Plant response rating, Goosegrass (goosegrass; [5]): 98
Plant response rating, Goosegrass (goosegrass; [6]): 100
Plant response rating, Goosegrass (goosegrass; Rate 250 g/ha): 100
Plant response rating, Goosegrass (goosegrass; Rate 500 g/ha): 100
Surinam grass plant response rating (surinam grass; [5]): 40
Surinam grass plant response rating (surinam grass; [6]): 85
Plant response rating, Surinam grass (surinam grass; Rate 250 g/ha): 98
Plant response rating, Surinam grass (surinam grass; Rate 500 g/ha): 100
Plant response rating, Dallisgrass (dallisgrass; [5]): 100
Plant response rating, Dallisgrass (dallisgrass; [6]): 100
Plant response rating, Dallisgrass (dallisgrass; Rate 250 g/ha): 100
Plant response rating, Dallisgrass (dallisgrass; Rate 500 g/ha): 100
Plant response rating, Bermudagrass (bermuda-grass; [5]): 100
Plant response rating, Bermudagrass (bermuda-grass; [6]): 100
Plant response rating, Bermudagrass (bermuda-grass; Rate 250 g/ha): 100
Plant response rating, Bermudagrass (bermuda-grass; Rate 500 g/ha): 100
Plant response rating, Spring Wheat (spring wheat; [11]): 55
Spring Wheat plant response rating (0 to 100 scale) (spring wheat): 100
